Our source for the EC50 values is patent US9655904B2, “Substituted benzoazepines as toll-like receptor modulators” (VentiRx Pharmaceuticals, Inc., priority 2009, dated 2017).

What all share (assay type): cell-based
For test [1], the target named is T1, TLR8 (Homo sapiens, UniProt Q9NR97).
T1 sequence (Q9NR97 27-1041): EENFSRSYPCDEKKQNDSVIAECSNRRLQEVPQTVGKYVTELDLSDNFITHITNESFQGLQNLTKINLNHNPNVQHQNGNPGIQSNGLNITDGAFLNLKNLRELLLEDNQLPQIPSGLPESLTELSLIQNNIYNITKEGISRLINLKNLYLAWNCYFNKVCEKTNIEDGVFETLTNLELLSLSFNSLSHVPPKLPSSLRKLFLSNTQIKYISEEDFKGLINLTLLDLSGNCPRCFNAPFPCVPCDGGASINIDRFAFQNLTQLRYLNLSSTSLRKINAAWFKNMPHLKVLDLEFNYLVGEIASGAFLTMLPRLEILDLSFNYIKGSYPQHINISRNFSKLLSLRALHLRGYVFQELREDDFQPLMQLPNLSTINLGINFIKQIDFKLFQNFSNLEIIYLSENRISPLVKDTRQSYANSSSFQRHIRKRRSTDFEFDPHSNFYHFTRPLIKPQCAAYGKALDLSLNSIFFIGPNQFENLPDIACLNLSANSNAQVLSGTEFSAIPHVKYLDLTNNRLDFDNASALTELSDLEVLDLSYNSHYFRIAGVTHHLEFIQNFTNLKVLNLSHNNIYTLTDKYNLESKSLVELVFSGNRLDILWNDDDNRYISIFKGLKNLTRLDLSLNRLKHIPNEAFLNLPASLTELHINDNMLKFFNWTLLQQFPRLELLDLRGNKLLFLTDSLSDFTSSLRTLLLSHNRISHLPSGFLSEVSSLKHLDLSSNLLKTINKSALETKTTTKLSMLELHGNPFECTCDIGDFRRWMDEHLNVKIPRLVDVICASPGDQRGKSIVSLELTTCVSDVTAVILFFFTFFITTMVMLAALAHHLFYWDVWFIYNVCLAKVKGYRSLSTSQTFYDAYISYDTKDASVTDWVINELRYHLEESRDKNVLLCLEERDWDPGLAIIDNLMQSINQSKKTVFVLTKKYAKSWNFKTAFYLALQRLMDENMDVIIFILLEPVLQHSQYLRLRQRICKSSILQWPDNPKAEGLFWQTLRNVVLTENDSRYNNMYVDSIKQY
Description: MC50 values for TLR8 activity (test not specified; procedures of Gorden et al. and Zhu et al.). An excerpt:
(§1) Activity of the compounds can be assessed according to procedures described in, e.g., Gorden et al., Journal of Immunology 177, pp. 8164-8170 (2006) and Zhu et al., Molecular Immunology, vol. 45 (11), pp. 3238-3242 (2008).
MC50 values for TLR8 activity are, for example, as shown below: […]

Test [2] deals with T1, TLR8. The experiment in a line: PBMC assay for TLR8 (TNFα in supernatants by ELISA). As to conditions: human PBMCs incubated with compound overnight, MC50 = concentration at which 50% of maximum induction is seen. The arrangement: Peripheral blood mononuclear cells (PBMCs) from human blood were isolated; endogenous in cells; host or cells: human PBMCs. Here is the method:
(§2) Peripheral blood mononuclear cells (PBMCs) from human blood were isolated using BD Vacutainer Cell Preparation Tubes with sodium citrate. Cells were incubated with compound overnight. TLR8 activity was assayed by measuring the amount of TNFα in supernatants by ELISA. TLR7 activity was assayed by measuring the amount of IFNα in supernatants by ELISA (R&D Systems). […] The results of this assay are shown below in Tables 2 and 3.
(§3) MC50 numbers are represented as factors of ten, for example, + indicates an MC50 value of X 10^4, or a value in the tens of thousands of nanomolar (nM range); ++ indicates an MC50 value of X 10^3, or a value in the thousands; +++ indicates an MC50 value of X 10^2, or a value in the hundreds; and ++++ indicates an MC50 value of X 10^1 or 10^0, or a value in the tens or ones.
In general terms: An ELISA detects its analyte on a solid surface through an enzyme-linked reagent.

Test [3] has as its target T2, TLR7 (Homo sapiens, UniProt Q9NYK1).
T2 sequence (Q9NYK1 27-1049): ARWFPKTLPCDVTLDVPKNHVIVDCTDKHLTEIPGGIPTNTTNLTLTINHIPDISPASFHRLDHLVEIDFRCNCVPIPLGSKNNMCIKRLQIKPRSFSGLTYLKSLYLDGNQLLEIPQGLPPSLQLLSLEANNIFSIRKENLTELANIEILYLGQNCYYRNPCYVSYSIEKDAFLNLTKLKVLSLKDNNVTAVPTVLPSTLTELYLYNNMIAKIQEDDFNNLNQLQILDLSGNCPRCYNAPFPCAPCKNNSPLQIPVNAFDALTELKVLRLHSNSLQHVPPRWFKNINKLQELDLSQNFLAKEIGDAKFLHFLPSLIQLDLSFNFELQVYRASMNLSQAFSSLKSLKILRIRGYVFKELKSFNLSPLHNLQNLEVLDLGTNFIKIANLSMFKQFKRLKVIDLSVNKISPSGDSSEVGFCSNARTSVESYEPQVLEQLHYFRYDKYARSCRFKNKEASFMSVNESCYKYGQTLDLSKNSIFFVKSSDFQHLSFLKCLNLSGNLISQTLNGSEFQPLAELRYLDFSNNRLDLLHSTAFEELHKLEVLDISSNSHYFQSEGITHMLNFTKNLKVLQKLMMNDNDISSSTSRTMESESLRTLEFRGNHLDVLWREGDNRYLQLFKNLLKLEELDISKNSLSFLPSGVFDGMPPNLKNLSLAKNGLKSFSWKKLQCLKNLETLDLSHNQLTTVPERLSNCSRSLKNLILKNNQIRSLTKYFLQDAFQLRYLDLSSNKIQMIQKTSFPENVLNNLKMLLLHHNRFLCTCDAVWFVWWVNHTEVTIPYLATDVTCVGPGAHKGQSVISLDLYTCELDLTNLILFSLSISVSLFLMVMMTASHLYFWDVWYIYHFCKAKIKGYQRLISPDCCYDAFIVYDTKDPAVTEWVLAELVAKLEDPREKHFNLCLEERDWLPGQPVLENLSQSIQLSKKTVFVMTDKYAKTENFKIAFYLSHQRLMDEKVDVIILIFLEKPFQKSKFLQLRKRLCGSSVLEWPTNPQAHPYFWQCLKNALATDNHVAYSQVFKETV
The experiment in a line: PBMC assay for TLR7 (IFNα in supernatants by ELISA). On the set-up: Peripheral blood mononuclear cells (PBMCs) from human blood were isolated; endogenous in cells; host or cells: human PBMCs. The following applies: human PBMCs incubated with compound overnight, MC50 = concentration at which 50% of maximum induction is seen. Here is the method:
as §2, §3

The target in test [4] is T2, TLR7. The experiment in a line: MC50 values for TLR7 activity (test not specified; procedures of Gorden et al. and Zhu et al.).
Text: as §1
MC50 values for TLR7 activity are, for example, as shown below: […]

As a reminder, the EC50 is the concentration needed to bring the measured effect to its halfway point. For the compound `CCCN(CCC)C(=O)C1=Cc2ccc(-c3cncc(CO)c3)cc2N=C(N)C1` [Compound 183, (1E,4E)-2-amino-8-(5-(hydroxymethyl)pyridin-3-yl)-N,N-dipropyl-3H-benzo[b]azepine-4-carboxamide], the EC50 on TLR8 [1] is 8 nM; on TLR8 [2] it was 1 to 100 nM; at TLR7 [3], 1000 to 10000 nM.

With `CCCN(CCC)C(=O)C1=Cc2ccc(-c3ccc(OCC(=O)OCC)cc3)cc2N=C(N)C1` [Compound 197, Ethyl 2-(4-((1E,4E)-2-amino-4-(dipropylcarbamoyl)-3H-benzo[b]azepin-8-yl)phenoxy)acetate], the EC50 on TLR8 [2] is 100 to 1000 nM; at TLR7 [3], 1000 to 10000 nM.

For the compound `CCOC(=O)C1=Cc2ccc(-c3cncc(CO)c3)cc2N=C(N)C1` [Compound 199, (1E,4E)-ethyl 2-amino-8-(5-(hydroxymethyl)pyridin-3-yl)-3H-benzo[b]azepine-4-carboxylate], the EC50 on TLR8 [2] lay within 1 to 100 nM; at TLR7 [3], 1000 to 10000 nM.

Regarding `CCCN(CCCO)C(=O)C1=Cc2ccc(-c3ccc(CC(=O)OC)cc3)cc2N=C(N)C1` [Compound 213, Methyl 2-(4-((1E,4E)-2-amino-4-((3-hydroxypropyl)(propyl)carbamoyl)-3H-benzo[b]azepin-8-yl)phenyl)acetate], the EC50 at TLR8 [2] is 100 to 1000 nM; on TLR7 [3], 1000 to 10000 nM.

On to `CCCN(CCCO)C(=O)C1=Cc2ccc(-c3ccc(CC(=O)OCC)cc3)cc2N=C(N)C1` [Compound 214, Ethyl 2-(4-((1E,4E)-2-amino-4-((3-hydroxypropyl)(propyl)carbamoyl)-3H-benzo[b]azepin-8-yl)phenyl)acetate], for which the EC50 is 54 nM on TLR8 [1], 1 to 100 nM at TLR8 [2] and 1000 to 10000 nM on TLR7 [3].

`CCCN(CCCO)C(=O)C1=Cc2ccc(-c3ccc(CC(=O)OC(C)C)cc3)cc2N=C(N)C1` [Compound 215, Isopropyl 2-(4-((1E,4E)-2-amino-4-((3-hydroxypropyl)(propyl)carbamoyl)-3H-benzo[b]azepin-8-yl)phenyl)acetate]: the EC50 was in the range of 1 to 100 nM on TLR8 [2] and 10000 to 100000 nM on TLR7 [3].

For the compound `CCCN(CCCO)C(=O)C1=Cc2ccc(-c3ccc(CC(=O)OCC(C)C)cc3)cc2N=C(N)C1` [Compound 216, Isobutyl 2-(4-((1E,4E)-2-amino-4-((3-hydroxypropyl)(propyl)carbamoyl)-3H-benzo[b]azepin-8-yl)phenyl)acetate], the EC50 on TLR8 [2] lay in the range of 1 to 100 nM; at TLR7 [3], 10000 to 100000 nM.

`CCCN(CCCO)C(=O)C1=Cc2ccc(-c3ccc(CCC(=O)OCC(C)C)cc3)cc2N=C(N)C1` [Compound 219, Isobutyl 3-(4-((1E,4E)-2-amino-4-((3-hydroxypropyl)(propyl)carbamoyl)-3H-benzo[b]azepin-8-yl)phenyl)propanoate]: the concentration for a half-maximal effect (EC50) on TLR8 [2] and at TLR7 [3] was 1000 to 10000 nM in each case.

As for `CCCN(CCCO)C(=O)C1=Cc2ccc(-c3ccc4c(c3)C(=O)OC4)cc2N=C(N)C1` [Compound 222, (1E,4E)-2-Amino-N-(3-hydroxypropyl)-8-((3-oxo-1,3-dihydroisobenzofuran-5-yl)-N-propyl-3H-benzo[b]azepine-4-carboxamide], the concentration giving a half-maximal response (EC50) on TLR8 [1] was 33 nM; at TLR7 [4] it was 358 nM; at TLR8 [2], 1 to 100 nM; on TLR7 [3] it was 100 to 1000 nM.

On to `CCCN(CCC)C(=O)C1=Cc2ccc(-c3ccc(C4CCOC4=O)cc3)cc2N=C(N)C1` (stereo not drawn) [Compound 223, (1E,4E)-2-Amino-8-(4-(2-oxotetrahydrofuran-3-yl)phenyl)-N,N-dipropyl-3H-benzo[b]azepine-4-carboxamide], for which the figures for the EC50 on TLR8 [1], at TLR8 [2] and on TLR7 [3] were 195 nM, 100 to 1000 nM and 1000 to 10000 nM, respectively.

Consider `CCCN(CCC)C(=O)C1=Cc2ccc(-c3ccc(C(O)CO)cc3)cc2N=C(N)C1` (stereo not drawn) [Compound 224, (1E,4E)-2-amino-8-(4-(1,2-dihydroxyethyl)phenyl)-N,N-dipropyl-3H-benzo[b]azepine-4-carboxamide], for which the results for the EC50 at TLR8 [1], at TLR8 [2] and at TLR7 [3] were 363 nM, 100 to 1000 nM and 10000 to 100000 nM, respectively.

As to `CCCN(CCC)C(=O)C1=Cc2ccc(-c3ccc(C4COC(=O)O4)cc3)cc2N=C(N)C1` (stereo not drawn) [Compound 225, (1E,4E)-2-amino-8-(4-(2-oxo-1,3-dioxolan-4-yl)phenyl)-N,N-dipropyl-3H-benzo[b]azepine-4-carboxamide], the values for the concentration for a half-maximal effect (EC50) at TLR8 [2] and at TLR7 [3] were 100 to 1000 nM and 10000 to 100000 nM, respectively.
